{"source": "patent US8278482B2", "about": "“Antimicrobial N-chlorinated compositions” (priority 2008, dated 2012)", "assay_type_in_all_cases": "cell-based", "key": {"[1]": {"test_system": "Escherichia coli (MCC 80392)", "test": "Antimicrobial activity (MBC), E. coli MCC 80392", "conditions": "1 h exposure at room temperature", "method": "(§1) To determine antimicrobial activity, Escherichia coli (ATCC 25922), Staphylococcus aureus (ATCC 29213), Pseudomonas aeruginosa (ATCC 27853), and Candida albicans (ATCC 10231) were used in primary screening. In addition, Escherichia coli (MCC 80392), Staphylococcus aureus (MCC 91731), Pseudomonas aeruginosa (MCC 4438), and Candida albicans (MCC 50319), provided by Alcon Laboratories, Fort Worth, Tex., were used. The microbial cultures were diluted in sterile saline pH 4 to prepare inocula. Test compounds were titrated by stepwise two-fold dilutions in sterile saline pH 4. A total of 1.0×10^5 to 1.0×10^6 Colony Forming Units (CFU)/mL microbe was added to each tube, mixed by gentle vortexing, and then incubated at room temperature for 1 h. Microbial plating on Petri dishes (Tryptic Soy agar or Saboraud's Dextrose agar) was performed immediately after the designated exposure after neutralization of the test article dilutions in Dey-Engley Broth. Plates were incubated at 37° C., and the numbers of microbes were counted by direct colony count to quantitate the surviving microbes as CFU/mL. Positive growth controls were made with sterile 0.9% saline. Compounds were dissolved in unbuffered isotonic saline (SAL) or phosphate buffered saline (PBS) at pH 4 or pH 7 (using HCl and/or NaOH as needed). All compounds were tested three times. The results are tabulated to show the comparison of antimicrobial effectiveness range of the compounds.\n(§2) Data shown are the Minimum Bactericidal Concentration (MBC) or Minimum Fungicidal Concentration (MFC) (≧99.9% kill) in μg/mL."}, "[2]": {"test_system": "Staphylococcus aureus (ATCC 29213)", "test": "Antimicrobial activity (MBC), S. aureus ATCC 29213", "method": "as §1, §2"}, "[3]": {"test_system": "Staphylococcus aureus (MCC 91731)", "test": "Antimicrobial activity (MBC), S. aureus MCC 91731", "conditions": "1 h exposure at room temperature", "method": "as §1, §2"}, "[4]": {"test_system": "Escherichia coli (ATCC 25922)", "test": "Antimicrobial activity (MBC), E. coli ATCC 25922", "method": "as §1, §2"}, "[5]": {"test_system": "Candida albicans (ATCC 10231)", "test": "Antimicrobial activity (MFC), C. albicans ATCC 10231", "method": "as §1, §2"}, "[6]": {"test_system": "mouse fibroblast cells (ATCC CCL-1, L929)", "test": "Cytotoxicity, WST-8 colorimetric assay", "conditions": "60 min exposure", "method": "Cytotoxicity was assessed by a colorimetric assay system using the Dojindo™ cell counting kit containing 2-(2-methoxy-4-nitrophenyl)-3-(4-nitrophenyl)-5-(2,4-disulfophenyl)-2H-tetrazolium, monosodium salt (WST-8). In this assay, the WST-8 reagent was bioreduced by cellular dehydrogenases to a formazan product that is highly soluble in tissue culture medium.\nIn a standard assay, mouse fibroblast cells (ATCC CCL-1, L929), were cultured in Minimum Essential Medium, α-medium supplemented with 10% heat inactivated fetal bovine serum, L-glutamine, penicillin and streptomycin. Cells were trypsinized and counted under the microscope and seeded at 1.5×10^4 total cells per 100 μL per well of a flat-bottom 96-well plate in order to achieve ˜80% confluence after overnight incubation at 37° C. On the day of the assay, the tissue culture medium was removed and replaced with 30 μL of fresh medium.\nTest articles were prepared as 2-fold serial dilutions and 170 μL of each dilution is added into each of 4-wells (total volume per well=200 μL). The test plate was then returned to the 37° C. incubator for 60 min. Immediately after the exposed time, test article from each well was replaced with 200 μL of fresh media. Plates were incubated at 37° C. for 18-20 hours. The following day growth medium was replaced with 100 μL/well of fresh medium containing 10 μL WST-8 reagent. Cells were incubated under growth conditions (5% CO2 at 37° C. humidified incubator), protected from light, until color development was achieved (usually 1-4 hours). Absorbance was read at 450 nm with reference wavelength at 750 nm using Molecular Device SpectraMax M5 plate reader. Untreated or vehicle only treated cells receiving WST-8 reagent served as positive cell proliferation controls.\nThe absorbance A450/750 from each well of untreated cells and from each well within the dilution series was measured. […] Next, a non-linear regression (curve fit) analysis was performed on all the absorbance data measured from the dilution series, including the absorbance data obtained from wells of the untreated control cells. For each dilution within the dilution series, an average A450/750 was calculated from the four replicate wells."}, "[7]": {"test_system": "Candida albicans (MCC 50319)", "test": "Antimicrobial activity (MFC), C. albicans MCC 50319", "conditions": "1 h exposure at room temperature", "method": "as §1, §2"}, "[8]": {"test_system": "Pseudomonas aeruginosa (MCC 4438)", "test": "Antimicrobial activity (MBC), P. aeruginosa MCC 4438", "conditions": "1 h exposure at room temperature", "method": "as §1, §2"}, "[9]": {"conditions": "ATCC29213, S. aureus ATCC 29213, pH 4 (Sal), 1 h exposure at room temperature, read-out: Minimum Bactericidal Concentration (MBC) (≧99.9% kill)"}, "[10]": {"conditions": "ATCC25922, E. coli ATCC 25922, pH 4 (Sal), 1 h exposure at room temperature, read-out: Minimum Bactericidal Concentration (MBC) (≧99.9% kill)"}, "[11]": {"conditions": "ATCC10231, C. albicans ATCC 10231, pH 4 (Sal), 1 h exposure at room temperature, read-out: Minimum Fungicidal Concentration (MFC) (≧99.9% kill)"}}, "note": "Read-outs that look alike come from different tables or passages of the source."}
{"compound": "CC(C)(C[N+](C)(C)C)N(Cl)Cl", "note": "[Compound 21-30, 2-(Dichloroamino)-N,N,N-2-tetramethylpropan-1-ammonium chloride]", "values": [{"measurement": "Minimum Bactericidal Concentration (MBC) (≧99.9% kill)", "setting": "[1]; pH 4 (Sal)", "result": 16, "unit": "µg/mL"}, {"measurement": "Minimum Bactericidal Concentration (MBC) (≧99.9% kill)", "setting": "[1]; pH 7 (PBS)", "result": 512, "unit": "µg/mL"}, {"measurement": "MBC", "setting": "[2]; ATCC29213, 1 h, pH 4, read-out: Minimum Bactericidal Concentration (MBC) (≧99.9% kill)", "result": 8, "unit": "µg/mL"}, {"measurement": "Minimum Bactericidal Concentration (MBC) (≧99.9% kill)", "setting": "[3]; pH 4 (Sal)", "result": 8, "unit": "µg/mL"}, {"measurement": "Minimum Bactericidal Concentration (MBC) (≧99.9% kill)", "setting": "[3]; pH 7 (PBS)", "result": 512, "unit": "µg/mL"}, {"measurement": "MBC", "setting": "[4]; ATCC25922, 1 h, pH 4, read-out: Minimum Bactericidal Concentration (MBC) (≧99.9% kill)", "result": 16, "unit": "µg/mL"}, {"measurement": "MFC", "setting": "[5]; ATCC10231, 1 h, pH 4, read-out: Minimum Fungicidal Concentration (MFC) (≧99.9% kill)", "result": 128, "unit": "µg/mL"}, {"measurement": "CT50 (concentration that results in survival of 50% of the cells)", "setting": "[6]; pH 4 (Sal)", "result": 0.5, "unit": "mM"}, {"measurement": "CT50 (concentration that results in survival of 50% of the cells)", "setting": "[6]; pH 7 (PBS)", "result": 0.5, "unit": "mM"}, {"measurement": "Minimum Fungicidal Concentration (MFC) (≧99.9% kill)", "setting": "[7]; pH 4 (Sal)", "result": 256, "unit": "µg/mL"}, {"measurement": "Minimum Fungicidal Concentration (MFC) (≧99.9% kill)", "setting": "[7]; pH 7 (PBS)", "result": ">2048", "unit": "µg/mL"}]}
{"compound": "CC(C)(CC[N+](C)(C)C)N(Cl)Cl.[Cl-]", "note": "[Compound 21-32, 3-(Dichloroamino)-N,N,N-3-tetramethylbutan-1-ammonium chloride]", "values": [{"measurement": "Minimum Bactericidal Concentration (MBC) (≧99.9% kill)", "setting": "[1]; pH 4 (Sal)", "result": 8, "unit": "µg/mL"}, {"measurement": "Minimum Bactericidal Concentration (MBC) (≧99.9% kill)", "setting": "[1]; pH 7 (PBS)", "result": 256, "unit": "µg/mL"}, {"measurement": "MBC", "setting": "[2]; [9]", "result": 2, "unit": "µg/mL"}, {"measurement": "MBC", "setting": "[2]; ATCC29213, S. aureus ATCC 29213, pH 7 (PBS), 1 h exposure at room temperature, read-out: Minimum Bactericidal Concentration (MBC) (≧99.9% kill)", "result": 512, "unit": "µg/mL"}, {"measurement": "Minimum Bactericidal Concentration (MBC) (≧99.9% kill)", "setting": "[3]; pH 4 (Sal)", "result": 1, "unit": "µg/mL"}, {"measurement": "Minimum Bactericidal Concentration (MBC) (≧99.9% kill)", "setting": "[3]; pH 7 (PBS)", "result": 256, "unit": "µg/mL"}, {"measurement": "MBC", "setting": "[4]; [10]", "result": 2, "unit": "µg/mL"}, {"measurement": "MBC", "setting": "[4]; ATCC25922, E. coli ATCC 25922, pH 7 (PBS), 1 h exposure at room temperature, read-out: Minimum Bactericidal Concentration (MBC) (≧99.9% kill)", "result": 128, "unit": "µg/mL"}, {"measurement": "MFC", "setting": "[5]; [11]", "result": 64, "unit": "µg/mL"}, {"measurement": "MFC", "setting": "[5]; ATCC10231, C. albicans ATCC 10231, pH 7 (PBS), 1 h exposure at room temperature, read-out: Minimum Fungicidal Concentration (MFC) (≧99.9% kill)", "result": "> 4100", "unit": "µg/mL"}, {"measurement": "CT50 (concentration that results in survival of 50% of the cells)", "setting": "[6]; pH 4 (Sal)", "result": 1.7, "unit": "mM"}, {"measurement": "CT50 (concentration that results in survival of 50% of the cells)", "setting": "[6]; pH 7 (PBS)", "result": 1.8, "unit": "mM"}, {"measurement": "Minimum Bactericidal Concentration (MBC) (≧99.9% kill)", "setting": "[8]; pH 7 (PBS)", "result": 512, "unit": "µg/mL"}, {"measurement": "Minimum Fungicidal Concentration (MFC) (≧99.9% kill)", "setting": "[7]; pH 4 (Sal)", "result": 32, "unit": "µg/mL"}, {"measurement": "Minimum Fungicidal Concentration (MFC) (≧99.9% kill)", "setting": "[7]; pH 7 (PBS)", "result": ">1024", "unit": "µg/mL"}]}
{"compound": "CC[N+](C)(CC)CCC(C)(C)N(Cl)Cl.[Cl-]", "note": "[Compound 21-114, 3-(Dichloroamino)-N,N-diethyl-N-3-dimethylbutan-1-ammonium chloride]", "values": [{"measurement": "Minimum Bactericidal Concentration (MBC) (≧99.9% kill)", "setting": "[1]; pH 4 (Sal)", "result": 2, "unit": "µg/mL"}, {"measurement": "Minimum Bactericidal Concentration (MBC) (≧99.9% kill)", "setting": "[1]; pH 7 (PBS)", "result": 512, "unit": "µg/mL"}, {"measurement": "MBC", "setting": "[2]; [9]", "result": 2, "unit": "µg/mL"}, {"measurement": "Minimum Bactericidal Concentration (MBC) (≧99.9% kill)", "setting": "[3]; pH 4 (Sal)", "result": 4, "unit": "µg/mL"}, {"measurement": "Minimum Bactericidal Concentration (MBC) (≧99.9% kill)", "setting": "[3]; pH 7 (PBS)", "result": 512, "unit": "µg/mL"}, {"measurement": "MBC", "setting": "[4]; [10]", "result": 8, "unit": "µg/mL"}, {"measurement": "MFC", "setting": "[5]; [11]", "result": 16, "unit": "µg/mL"}, {"measurement": "CT50 (concentration that results in survival of 50% of the cells)", "setting": "[6]; pH 4 (Sal)", "result": 1.3, "unit": "mM"}, {"measurement": "Minimum Bactericidal Concentration (MBC) (≧99.9% kill)", "setting": "[8]; pH 4 (Sal)", "result": 4, "unit": "µg/mL"}, {"measurement": "Minimum Bactericidal Concentration (MBC) (≧99.9% kill)", "setting": "[8]; pH 7 (PBS)", "result": 1024, "unit": "µg/mL"}]}
{"compound": "CC(C)(CC[N+]1(C)CCCCC1)N(Cl)Cl.[Cl-]", "note": "[Compound 21-80, 1-(3-(Dichloroamino)-3-methylbutyl)-1-methylpiperidinium chloride]", "values": [{"measurement": "Minimum Bactericidal Concentration (MBC) (≧99.9% kill)", "setting": "[1]; pH 4 (Sal)", "result": 4, "unit": "µg/mL"}, {"measurement": "Minimum Bactericidal Concentration (MBC) (≧99.9% kill)", "setting": "[1]; pH 7 (PBS)", "result": 256, "unit": "µg/mL"}, {"measurement": "MBC", "setting": "[2]; [9]", "result": 4, "unit": "µg/mL"}, {"measurement": "Minimum Bactericidal Concentration (MBC) (≧99.9% kill)", "setting": "[3]; pH 4 (Sal)", "result": 4, "unit": "µg/mL"}, {"measurement": "Minimum Bactericidal Concentration (MBC) (≧99.9% kill)", "setting": "[3]; pH 7 (PBS)", "result": ">256", "unit": "µg/mL"}, {"measurement": "MBC", "setting": "[4]; [10]", "result": 2, "unit": "µg/mL"}, {"measurement": "MFC", "setting": "[5]; [11]", "result": 32, "unit": "µg/mL"}, {"measurement": "CT50 (concentration that results in survival of 50% of the cells)", "setting": "[6]; pH 4 (Sal)", "result": 0.9, "unit": "mM"}, {"measurement": "Minimum Bactericidal Concentration (MBC) (≧99.9% kill)", "setting": "[8]; pH 4 (Sal)", "result": 4, "unit": "µg/mL"}, {"measurement": "Minimum Bactericidal Concentration (MBC) (≧99.9% kill)", "setting": "[8]; pH 7 (PBS)", "result": ">256", "unit": "µg/mL"}, {"measurement": "Minimum Fungicidal Concentration (MFC) (≧99.9% kill)", "setting": "[7]; pH 4 (Sal)", "result": 64, "unit": "µg/mL"}, {"measurement": "Minimum Fungicidal Concentration (MFC) (≧99.9% kill)", "setting": "[7]; pH 7 (PBS)", "result": ">512", "unit": "µg/mL"}]}
